Some test systems named below: MDA-MB-231 breast; HOP-62 NSCLC; OVCAR-4 ovarian; HT29 colon; MALME-3M melanoma; NCI-H23 lung; OVCAR-8 ovarian; UACC-62 melanoma; K-562 leukemia; HL-60(TB) leukemia.
Common to all, as to assay: NCI-60 cell line screen, 48 h

Values joined by “and” are separate entries in the source; they are usually repeats but may differ in a detail not shown here. Identical values can stand only once.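 Compound exposure: 48 hours, 5 concentrations, 96-well plates. GI50 = concentration required for 50% inhibition of growth. At the TGI there is no net growth.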

With `CC1(O)CC2(O)C=CC3=C(C(=O)c4cccc(O)c4C3=O)C2(O)C(=O)C1O` (centres undefined), the TGI amounted to 11.8 µM in the assay on MDA-MB-231 breast; 36.4 µM in the assay with HOP-62 NSCLC; 2.86 µM in the assay with OVCAR-4 ovarian; 5.95 µM in the assay on HT29 colon; 0.966 µM in the assay with MALME-3M melanoma; 10.7 µM in the assay with NCI-H23 lung. The TGI is 8.08 µM in the assay on OVCAR-8 ovarian, 6.88 µM in the assay on UACC-62 melanoma, 10.4 µM in the assay on K-562 leukemia and 2.17 µM in the assay on HL-60(TB) leukemia.

For the molecule `COC(=O)c1ccc2c(c1)C(=O)c1c-2n(CCCN)c(=O)c2cc([N+](=O)[O-])ccc12`, the GI50 in the assay on MDA-MB-231 breast was 0.426 µM; in the assay on HOP-62 NSCLC, less than 0.0161 µM; in the assay with HT29 colon, less than 0.0236 µM; in the assay on MALME-3M melanoma, 0.038 µM; in the assay with NCI-H23 lung, less than 0.0318 µM; with OVCAR-8 ovarian, less than 0.0344 µM. Moreover, the GI50 in the assay with UACC-62 melanoma was less than 0.0254 µM; with K-562 leukemia it was 0.0206 µM; in the assay with HL-60(TB) leukemia it was less than 0.0194 µM. The TGI turned out to be 0.96 µM in the assay on MDA-MB-231 breast; 0.532 µM in the assay on HOP-62 NSCLC; 0.647 µM with OVCAR-4 ovarian; 0.436 µM in the assay with HT29 colon; 1.36 µM in the assay on MALME-3M melanoma; 1.28 µM in the assay on NCI-H23 lung. Moreover, the TGI is 0.864 µM in the assay on OVCAR-8 ovarian, 0.398 µM with UACC-62 melanoma, 2.02 µM in the assay with K-562 leukemia and 1.39 µM with HL-60(TB) leukemia.

As to `CC(=O)OC1CCC2(C)C(CCC3C4CC=C(C(C)=O)C4(C)OC(=O)CC32)C1` (centres undefined), the GI50 in the assay with MDA-MB-231 breast is 2.05 µM; in the assay with HOP-62 NSCLC, 4.06 µM; with OVCAR-4 ovarian it was 1.7 µM; with HT29 colon it was 1.6 µM; in the assay with MALME-3M melanoma it was 1.61 µM; in the assay with NCI-H23 lung, 2.9 µM. The GI50 in the assay on OVCAR-8 ovarian is 2.13 µM; in the assay with UACC-62 melanoma, 1.72 µM; in the assay with K-562 leukemia it was 3.35 µM; in the assay with HL-60(TB) leukemia, 2.05 µM. For the same molecule, the TGI with MDA-MB-231 breast worked out at 4.33 µM; in the assay on HOP-62 NSCLC, 14.7 µM; with OVCAR-4 ovarian it was 3.31 µM; with HT29 colon, 3.09 µM; with MALME-3M melanoma, 3.67 µM; in the assay with NCI-H23 lung, 10.6 µM. Moreover, the TGI in the assay with OVCAR-8 ovarian was 7.49 µM; in the assay on UACC-62 melanoma, 3.53 µM; in the assay with K-562 leukemia it was 10.3 µM; in the assay with HL-60(TB) leukemia, 5.05 µM.

With `C=CC(=O)N1CCC([C@@H]2CCNc3c(C(N)=O)c(-c4ccc(Oc5ccccc5)cc4)nn32)CC1`, the GI50 in the assay with MDA-MB-231 breast was 18.4 µM; in the assay with HOP-62 NSCLC, 16.9 µM; in the assay on OVCAR-4 ovarian it was 13.5 µM; in the assay on HT29 colon, 16.5 µM; in the assay on MALME-3M melanoma, 11.6 µM; with NCI-H23 lung, 17.5 µM. The GI50 is 13.8 µM in the assay with OVCAR-8 ovarian, 11.4 µM with UACC-62 melanoma, 25.3 µM in the assay with K-562 leukemia and 15.5 µM in the assay with HL-60(TB) leukemia. Besides, the TGI is 56.4 µM with MDA-MB-231 breast; greater than 75.1 µM with HOP-62 NSCLC; 97.2 µM in the assay with OVCAR-4 ovarian; greater than 71.1 µM in the assay on HT29 colon; 26.8 µM in the assay on MALME-3M melanoma; 43.2 µM in the assay on NCI-H23 lung. Further, the TGI was 74.2 µM in the assay with OVCAR-8 ovarian, 26.6 µM in the assay with UACC-62 melanoma, greater than 100 µM in the assay on K-562 leukemia and 49.7 µM in the assay with HL-60(TB) leukemia.

For `C#C[C@@]1(O)[C@@H](CO)O[C@@H](n2ccc3c(N)ncnc32)[C@@H]1O`, the GI50 was 1.53 µM with MDA-MB-231 breast; 2.05 µM with HOP-62 NSCLC; 1.97 µM with OVCAR-4 ovarian; 0.97 µM in the assay with HT29 colon; 1.68 µM in the assay with MALME-3M melanoma; 1.18 µM in the assay on NCI-H23 lung. In addition, the GI50 with OVCAR-8 ovarian was 1.03 µM; in the assay on UACC-62 melanoma, 1.79 µM; with K-562 leukemia it was 0.806 µM; with HL-60(TB) leukemia, 1.57 µM. The TGI is 5.89 µM in the assay with MDA-MB-231 breast; 7.91 µM in the assay on HOP-62 NSCLC; 7.79 µM in the assay with OVCAR-4 ovarian; 5.55 µM with MALME-3M melanoma; 4.32 µM in the assay on NCI-H23 lung; 4.11 µM in the assay on OVCAR-8 ovarian. In addition, the TGI in the assay on UACC-62 melanoma was 4.48 µM; in the assay with K-562 leukemia, greater than 100 µM; in the assay with HL-60(TB) leukemia, 5.49 µM.

With `COc1ccc(/C=C/C(=O)c2ccc3cc(OC)c(OC)cc3c2)cc1OC`, the GI50 is 6.19 µM with MDA-MB-231 breast; 3.92 µM in the assay on HOP-62 NSCLC; 3.5 µM in the assay on OVCAR-4 ovarian; 2.97 µM with HT29 colon; 13.6 µM in the assay with MALME-3M melanoma; 6.9 µM in the assay on NCI-H23 lung. Moreover, the GI50 with OVCAR-8 ovarian is 2.56 µM; with UACC-62 melanoma, 3.71 µM; with K-562 leukemia, 3.02 µM; with HL-60(TB) leukemia it was 3.46 µM. The TGI with MDA-MB-231 breast is greater than 100 µM; with HOP-62 NSCLC, 22.1 µM; with OVCAR-4 ovarian, 36.7 µM; with HT29 colon it was 9.47 µM; in the assay on MALME-3M melanoma, 30.2 µM; in the assay on NCI-H23 lung it was 32 µM. The TGI was 7.89 µM in the assay on OVCAR-8 ovarian, 16.9 µM with UACC-62 melanoma, greater than 100 µM with K-562 leukemia and 10.1 µM in the assay on HL-60(TB) leukemia.

Take `Nc1ncnc2c(C3OC(CO)C(O)C3O)[nH]nc12` (centres undefined): the GI50 with MDA-MB-231 breast is 0.0218 µM; with HOP-62 NSCLC, 0.123 µM; in the assay on OVCAR-4 ovarian, 0.116 µM; in the assay with MALME-3M melanoma, 0.519 µM; in the assay with NCI-H23 lung, 0.659 µM; with OVCAR-8 ovarian, 0.0375 µM and 0.0527 µM. Moreover, the GI50 was 0.0459 µM in the assay on K-562 leukemia and 0.0142 µM in the assay on HL-60(TB) leukemia. The TGI in the assay with MDA-MB-231 breast was 0.0705 µM; with OVCAR-4 ovarian, 3.51 µM and 2.3 µM; with HT29 colon, 10.5 µM and 4.62 µM; with MALME-3M melanoma, 5.33 µM and 2.75 µM; with NCI-H23 lung, 10.5 µM and 16.4 µM; with OVCAR-8 ovarian it was 0.624 µM and 0.713 µM. Further, the TGI in the assay with UACC-62 melanoma is 10.7 µM and 10.2 µM; in the assay with K-562 leukemia it was 2.03 µM; in the assay on HL-60(TB) leukemia, 0.111 µM.

Turning to `O=c1oc2ccc(Cl)cc2c(=O)n1-c1cc(C(F)(F)F)cc(C(F)(F)F)c1`, the GI50 in the assay on MDA-MB-231 breast is 0.289 µM; in the assay with HOP-62 NSCLC, 0.352 µM; with OVCAR-4 ovarian, 0.292 µM; in the assay on HT29 colon, 2.12 µM; in the assay on MALME-3M melanoma, 0.222 µM; in the assay on NCI-H23 lung, 0.289 µM. Besides, the GI50 in the assay with OVCAR-8 ovarian is 0.323 µM; in the assay with UACC-62 melanoma it was 0.147 µM; in the assay on K-562 leukemia it was 0.211 µM; in the assay with HL-60(TB) leukemia it was 0.231 µM. Besides, the TGI in the assay with MDA-MB-231 breast was determined as 4.36 µM; in the assay on HOP-62 NSCLC, 4.36 µM; in the assay with OVCAR-4 ovarian it was 29.2 µM; in the assay on HT29 colon, 14.6 µM; with MALME-3M melanoma, 0.696 µM; in the assay on NCI-H23 lung, 1.11 µM. The TGI is 0.673 µM in the assay on UACC-62 melanoma, greater than 38 µM in the assay on K-562 leukemia and 0.553 µM in the assay on HL-60(TB) leukemia.

The record behind these values is PubChem BioAssay (NCI).
